In brackets after ≈: the same amount, converted by molar mass.

Results on three compounds are retold here after patent US20190127313A1, “ANTIMICROBIAL AGENTS” (THE UNIVERSITY OF WARWICK, priority 2016, published 2019).

Series [1] relates to Acinetobacter baumannii AB5075. As to the kind of experiment: MIC/MBC by CLSI broth microdilution, ESKAPE panel. The format is cell-based. On the procedure:
(§1) Minimal inhibitory concentrations (MICs) were determined by the CLSI broth microdilution method. Briefly, representative members of the […] panel of pathogens were grown overnight in Mueller-Hinton (MH) broth at 30° C. Each organism was diluted to a final concentration of 5×10^5 […] using McFarland turbidity standards. Concentrations of vibroxin followed twofold dilutions starting at 32 μg/mL. Assays were incubated for 18h at 30° C. […] Cell suspensions without visible growth were then plated out on LB agar plates to determine the minimal bactericidal concentration (MBC). The MBC was set as the lowest concentration required to kill 99.9% of the originally inoculated 5.10^5 CFU/ml. All MIC and MBC determinations were performed in triplicate.

Series [2] concerns Acinetobacter baumannii ATCC17978. As to the kind of experiment: MIC/MBC by CLSI broth microdilution, ESKAPE panel. The format is cell-based. On the procedure: as §1
Series [3] has as its system Acinetobacter baumannii AYE. As to the kind of experiment: MIC/MBC by CLSI broth microdilution, ESKAPE panel. The format is cell-based. On the procedure: as §1
The test system of series [4] is Acinetobacter baumannii DSM25645. As to the kind of experiment: MIC/MBC by CLSI broth microdilution, ESKAPE panel. The format is cell-based. On the procedure:
as §1

Series [5] relates to Acinetobacter baumannii S1. As to the kind of experiment: MIC/MBC by CLSI broth microdilution, ESKAPE panel. The format is cell-based. On the procedure: as §1
The test system of series [6] is Enterobacter cloacae DSM16690. As to the kind of experiment: MIC by CLSI broth microdilution, ESKAPE panel. The format is cell-based. The note with it: MH broth, 18h at 30° C. As for the experimental part:
as §1

In series [7] the test system is Enterococcus faecium DSM25390. As to the kind of experiment: MIC by CLSI broth microdilution, ESKAPE panel. The format is cell-based. The following applies: MH broth, 18h at 30° C. On the procedure: as §1
In series [8] the test system is Klebsiella pneumoniae DSM26371. The series can be described thus: MIC by CLSI broth microdilution, ESKAPE panel. The following applies: MH broth, 18h at 30° C. The format is cell-based. On the procedure: as §1
Series [9] relates to Pseudomonas aeruginosa DSM29239. As to the kind of experiment: MIC by CLSI broth microdilution, ESKAPE panel. The following applies: MH broth, 18h at 30° C. The format is cell-based. On the procedure: as §1
The test system of series [10] is Staphylococcus aureus DSM21979. The series can be described thus: MIC by CLSI broth microdilution, ESKAPE panel. The format is cell-based. The following applies: MH broth, 18h at 30° C. As for the experimental part: as §1
For series [11], the system named is multidrug-resistant A. baumannii strains. The series can be described thus: MIC against multidrug-resistant A. baumannii strains. The format is cell-based. The note with it: Acinetobacter baumannii. As for the experimental part: Minimal inhibitory concentrations (MICs) were determined by the CLSI broth microdilution method. Briefly, representative members of the ESKAPE panel of pathogens were grown overnight in Mueller-Hinton (MH) broth at 30° C. Each organism was diluted to a final concentration of 5×10^5 […] using McFarland turbidity standards. Concentrations of vibroxin followed twofold dilutions starting at 32 μg/mL. Assays were incubated for 18h at 30° C.

In series [12] the test system is A2780 human ovarian cancer cells. As to the kind of experiment: Cytotoxicity, SRB assay, A2780 cells. The format is cell-based. The following applies: 24 h exposure, 72 h recovery. As for the experimental part:
The cells were obtained from the European Collection of Animal Cell Culture and grown as single monolayers in Roswell Park Memorial Institute medium (RPMI-1640) supplemented with 10% (v/v) fetal calf serum, 1% (v/v) 2 mM L-glutamine and 1% (v/v) penicillin (10 k units/mL)/streptomycin (10 mg/mL). Cells were kept at 310 K in a humidified atmosphere containing 5% CO2 and maintenance passages were done at ca. 80% confluency.
For cytotoxicity measurements, 96-well plates were used to seed 5000 A2780 cells per well. These were left to pre-incubate in drug-free media at 310 K for 48 h before adding various concentrations of vibroxin. A stock solution of vibroxin was prepared in 5% v/v DMSO and 95% v/v cell culture medium. Then, serial dilutions with culture medium were carried out to achieve working concentrations. […] The percentage of viable cells resulting from exposure to vibroxin was determined by measuring the absorbance due to soluble sulforohodamine relative to an untreated control. The absorbance measurements were carried out using a BioRad iMark microplate reader with a 470 nm filter. Mean percentage cell viability values+/−1 standard deviation were calculated from duplicates of triplicates in two independent sets of experiments.

A short description of series [13]: Alkaline hydrolysis of the ester linkage, LC-MS analysis. The format is physicochemical. The note with it: 0.4M KOH, 37° C., 4h. On the procedure: The relative stereochemistry of the dihydroxycyclohexane carboxylic acid (DHCCA) moiety in vibroxin was determined by hydrolyzing the ester linkage in vibroxin under basic conditions. […] The same was not true for the corresponding portion of enacyloxin, which had degraded. […] The alkaline hydrolysis reaction was carried out by combining 15 μl of a 5 mg/ml solution of vibroxin/enacyloxin in methanol with 185 μl 0.4M KOH. Following incubation at 37° C. for 4h, the mixture was acidified (<pH 4) with 35% HCl. The samples were analysed by UHPLC-ESI-QTOF-MS analysis using a Dionex UltiMate 3000 RS UHPLC connected to a Zorbax Eclipse Plus column (C18, 100×2.1 mm, 1.8 μm) coupled to a Bruker MaXis IMPACT mass spectrometer. The mass spectrometer was operated in positive ion mode with a scan range of 50-3000 m/z.

The next series deals with A. baumannii strains. The note with it: see Furukawa et al. 2007; cited from earlier work.
The mark [14] stands for this setting: lowest concentration required to kill 99.9%.

Take `CC(/C=C/C=C/C(=O)OC1CC(C(=O)O)CCC1O)=C\C=C\C=C(/Cl)C(C)C(O)C(O)C(O)CC(O)/C=C/C=C/C(C)C` (stereo not shown) [vibroxin]: the MIC in series [1] (MH broth, 18h at 30° C.) is 2 µg/mL (≈ 3.21 µM); in [2] (MH broth, 18h at 30° C.), 2 µg/mL (≈ 3.21 µM); in [3] (MH broth, 18h at 30° C.), 2 µg/mL (≈ 3.21 µM); in series [4] (MH broth, 18h at 30° C.), 2 µg/mL (≈ 3.21 µM); in series [5] (MH broth, 18h at 30° C.), 1 µg/mL (≈ 1.6 µM); in series [6], over 32 µg/mL. In addition, the MIC in series [7] is over 32 µg/mL; in [8], over 32 µg/mL; in [9], over 32 µg/mL; in series [10] it was over 32 µg/mL; in [11], 2 µg/mL (≈ 3.21 µM). Moreover, the MBC was 4 µg/mL (≈ 6.42 µM) in series [1] (setting [14]); 8 µg/mL (≈ 12.8 µM) in series [2] (setting [14]); 4 µg/mL (≈ 6.42 µM) in series [3] (setting [14]); 8 µg/mL (≈ 12.8 µM) in series [4] (setting [14]); 8 µg/mL (≈ 12.8 µM) in series [5] (setting [14]). In series [12], this compound gave an IC50 of 50 to 100 µM. Further, in series [13], the “polyketide chain resulting from alkaline hydrolysis of the ester linkage, detection by LC-MS” value is “could also be detected by LC-MS”. The “chemical stability (comparison)” value in series [13] (alkaline hydrolysis) is on record as “greater chemical stability than enacyloxin”.
In turn, `CC/C=C/[C@@H](OC(N)=O)[C@@H](Cl)[C@H](O)CC(=O)[C@@H](O)[C@H](O)C(C)/C(Cl)=C/C=C/C=C(C)/C=C/C=C/C(=O)O[C@@H]1CC(C(=O)O)CC[C@@H]1O` (stereo partly shown) [enacyloxin, enacyloxin IIa, reference compound] displayed an MIC in [11] of 2 µg/mL (≈ 2.85 µM). Further, the “polyketide chain resulting from alkaline hydrolysis of the ester linkage, detection by LC-MS” value in series [13] was “had degraded”.
As to C-18 deschloro-enacyloxin, the MIC with A. baumannii strains was over 32 µg/mL.
